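48-hour exposure; five concentrations; linearly interpolated endpoints. The concentration for full growth arrest is given as TGI.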
What was measured:
Assay in all cases: NCI anticancer screen, dose series, 48 h
SF-268 CNS = test system: SF-268 CNS
KM20L2 colon = test system: KM20L2 colon
MDA-MB-231 breast = test system: MDA-MB-231 breast
HCC-2998 colon = test system: HCC-2998 colon
NCI-H23 lung = test system: NCI-H23 lung
T-47D breast = test system: T-47D breast
MOLT-4 leukemia = test system: MOLT-4 leukemia
UO-31 renal = test system: UO-31 renal
786-0 renal = test system: 786-0 renal
SNB-19 CNS = test system: SNB-19 CNS
DLD-1 colon = test system: DLD-1 colon
OVCAR-5 ovarian = test system: OVCAR-5 ovarian
LOX IMVI melanoma = test system: LOX IMVI melanoma
MDA-MB-435 = test system: MDA-MB-435
RPMI-8226 leukemia = test system: RPMI-8226 leukemia
LXFL 529 NSCLC = test system: LXFL 529 NSCLC
SNB-75 CNS = test system: SNB-75 CNS
SNB-78 CNS = test system: SNB-78 CNS
SK-OV-3 ovarian = test system: SK-OV-3 ovarian
NCI-H522 lung = test system: NCI-H522 lung
XF 498 CNS = test system: XF 498 CNS
UACC-62 melanoma = test system: UACC-62 melanoma
DMS 114 small cell lung = test system: DMS 114 small cell lung
NCI-H460 lung = test system: NCI-H460 lung
HCT-15 colon = test system: HCT-15 colon
PC-3 prostate = test system: PC-3 prostate
DMS 273 small cell lung = test system: DMS 273 small cell lung
RXF 393 renal = test system: RXF 393 renal
K-562 leukemia = test system: K-562 leukemia
IGROV1 ovarian = test system: IGROV1 ovarian
SF-539 CNS = test system: SF-539 CNS
SR leukemia = test system: SR leukemia
HL-60(TB) leukemia = test system: HL-60(TB) leukemia
COLO 205 colon = test system: COLO 205 colon
HOP-92 NSCLC = test system: HOP-92 NSCLC
HT29 colon = test system: HT29 colon
NCI-H226 lung = test system: NCI-H226 lung
A498 renal = test system: A498 renal
SK-MEL-28 melanoma = test system: SK-MEL-28 melanoma
UACC-257 melanoma = test system: UACC-257 melanoma
OVCAR-8 ovarian = test system: OVCAR-8 ovarian
A549 NSCLC = test system: A549 NSCLC
MCF7 breast = test system: MCF7 breast
M19-MEL melanoma = test system: M19-MEL melanoma
ACHN renal = test system: ACHN renal
HCT-116 colon = test system: HCT-116 colon
CCRF-CEM leukemia = test system: CCRF-CEM leukemia
SF-295 CNS = test system: SF-295 CNS
BT-549 breast = test system: BT-549 breast
OVCAR-3 ovarian = test system: OVCAR-3 ovarian
HOP-62 NSCLC = test system: HOP-62 NSCLC
KM12 colon = test system: KM12 colon
SK-MEL-5 melanoma = test system: SK-MEL-5 melanoma
MALME-3M melanoma = test system: MALME-3M melanoma
DU-145 prostate = test system: DU-145 prostate
EKVX NSCLC = test system: EKVX NSCLC
CAKI-1 renal = test system: CAKI-1 renal
NCI/ADR-RES ovarian = test system: NCI/ADR-RES ovarian
HOP-18 NSCLC = test system: HOP-18 NSCLC
OVCAR-4 ovarian = test system: OVCAR-4 ovarian
HS 578T breast = test system: HS 578T breast
MDA-N = test system: MDA-N
TK-10 renal = test system: TK-10 renal
U251 CNS = test system: U251 CNS
SN12C renal = test system: SN12C renal
SW-620 colon = test system: SW-620 colon
SK-MEL-2 melanoma = test system: SK-MEL-2 melanoma
M14 melanoma = test system: M14 melanoma
RXF-631 renal = test system: RXF-631 renal

In the case of `Cc1nc(N)nc(N)c1-c1ccc(Cl)c(Cl)c1`, the TGI (SF-268 CNS) is reported as over 100 µM, the TGI (KM20L2 colon) is reported as over 100 µM and the TGI (MDA-MB-231 breast) is reported as over 100 µM. The TGI (HCC-2998 colon) was over 50.6 µM, the TGI (NCI-H23 lung) was over 81 µM and the TGI (T-47D breast) was over 100 µM. For the same compound, the TGI (MOLT-4 leukemia) was over 100 µM, the TGI (UO-31 renal) was over 89.3 µM and the TGI (786-0 renal) was over 100 µM. It also gave a TGI (SNB-19 CNS) of over 100 µM, a TGI (DLD-1 colon) of 55 µM and a TGI (OVCAR-5 ovarian) of over 100 µM. It also gave a TGI (LOX IMVI melanoma) of over 100 µM, a TGI (MDA-MB-435) of over 100 µM and a TGI (RPMI-8226 leukemia) of over 100 µM. For the same compound, the TGI (LXFL 529 NSCLC) was over 100 µM, the TGI (SNB-75 CNS) was over 76.4 µM and the TGI (SNB-78 CNS) was over 100 µM. For the same compound, the TGI (SK-OV-3 ovarian) was over 100 µM, the TGI (NCI-H522 lung) was 34.8 µM and the TGI (XF 498 CNS) was over 100 µM. It also gave a TGI (UACC-62 melanoma) of over 51.1 µM, a TGI (DMS 114 small cell lung) of over 100 µM and a TGI (NCI-H460 lung) of over 92.1 µM. The TGI (HCT-15 colon) was over 100 µM, the TGI (PC-3 prostate) was over 100 µM and the TGI (DMS 273 small cell lung) was over 100 µM. It also gave a TGI (RXF 393 renal) of over 79.9 µM, a TGI (K-562 leukemia) of over 100 µM and a TGI (IGROV1 ovarian) of over 100 µM. The TGI (SF-539 CNS) was over 100 µM, the TGI (SR leukemia) was over 100 µM and the TGI (HL-60(TB) leukemia) was over 88.1 µM. For the same compound, the TGI (COLO 205 colon) was over 67.5 µM, the TGI (HOP-92 NSCLC) was 79.7 µM and the TGI (HT29 colon) was over 100 µM. The TGI (NCI-H226 lung) was over 100 µM, the TGI (A498 renal) was over 80.6 µM and the TGI (SK-MEL-28 melanoma) was 47.1 µM. It also gave a TGI (UACC-257 melanoma) of over 100 µM, a TGI (OVCAR-8 ovarian) of over 100 µM and a TGI (A549 NSCLC) of over 100 µM. The TGI (MCF7 breast) was over 100 µM, the TGI (M19-MEL melanoma) was over 100 µM and the TGI (ACHN renal) was over 100 µM. It also gave a TGI (HCT-116 colon) of over 100 µM, a TGI (CCRF-CEM leukemia) of over 100 µM and a TGI (SF-295 CNS) of over 100 µM. It also gave a TGI (BT-549 breast) of over 100 µM, a TGI (OVCAR-3 ovarian) of over 49 µM and a TGI (HOP-62 NSCLC) of over 100 µM. It also gave a TGI (KM12 colon) of over 100 µM, a TGI (SK-MEL-5 melanoma) of over 44.7 µM and a TGI (MALME-3M melanoma) of over 87.7 µM. The TGI (DU-145 prostate) was over 100 µM, the TGI (EKVX NSCLC) was over 100 µM and the TGI (CAKI-1 renal) was over 100 µM. The TGI (NCI/ADR-RES ovarian) was over 100 µM, the TGI (HOP-18 NSCLC) was over 100 µM and the TGI (OVCAR-4 ovarian) was over 100 µM. For the same compound, the TGI (HS 578T breast) was 58 µM, the TGI (MDA-N) was over 100 µM and the TGI (TK-10 renal) was over 51.9 µM. The TGI (U251 CNS) was over 100 µM, the TGI (SN12C renal) was over 100 µM and the TGI (SW-620 colon) was over 100 µM. For the same compound, the TGI (SK-MEL-2 melanoma) was over 90.6 µM and the TGI (M14 melanoma) was over 100 µM.

`O=C1C(Br)=CC2(C=C1Br)CCNC1=C2C(=O)c2ccccc2C1=O` was tested, and the TGI (SF-268 CNS) was 63.3 µM, the TGI (KM20L2 colon) was 91.8 µM and the TGI (NCI-H23 lung) was 33.7 µM. It also gave a TGI (MOLT-4 leukemia) of 22.7 µM, a TGI (786-0 renal) of 29.5 µM and a TGI (DLD-1 colon) of 28.4 µM. The TGI (LOX IMVI melanoma) was 17.2 µM, the TGI (RPMI-8226 leukemia) was 41 µM and the TGI (LXFL 529 NSCLC) was 35.1 µM. For the same compound, the TGI (RXF-631 renal) was 26.6 µM, the TGI (SNB-75 CNS) was over 100 µM and the TGI (SNB-78 CNS) was over 100 µM. It also gave a TGI (SK-OV-3 ovarian) of over 100 µM, a TGI (NCI-H522 lung) of 14.4 µM and a TGI (UACC-62 melanoma) of 29.6 µM. The TGI (DMS 114 small cell lung) was 22.8 µM, the TGI (HCT-15 colon) was 30.3 µM and the TGI (K-562 leukemia) was 48.4 µM. It also gave a TGI (IGROV1 ovarian) of 83.6 µM, a TGI (HL-60(TB) leukemia) of 13.3 µM and a TGI (COLO 205 colon) of 15.9 µM. It also gave a TGI (HT29 colon) of over 100 µM, a TGI (UACC-257 melanoma) of 53.3 µM and a TGI (OVCAR-8 ovarian) of 98 µM. The TGI (A549 NSCLC) was over 100 µM, the TGI (M19-MEL melanoma) was 18.4 µM and the TGI (ACHN renal) was 27.9 µM. It also gave a TGI (HCT-116 colon) of 17.6 µM, a TGI (CCRF-CEM leukemia) of 19 µM and a TGI (SF-295 CNS) of 33.2 µM. It also gave a TGI (OVCAR-3 ovarian) of over 100 µM, a TGI (HOP-62 NSCLC) of 30.7 µM and a TGI (KM12 colon) of 23.4 µM. For the same compound, the TGI (SK-MEL-5 melanoma) was 28.5 µM, the TGI (MALME-3M melanoma) was 33.8 µM and the TGI (EKVX NSCLC) was 99.1 µM. The TGI (CAKI-1 renal) was 72.4 µM, the TGI (HOP-18 NSCLC) was over 100 µM and the TGI (TK-10 renal) was 83.4 µM. The TGI (SN12C renal) was 19.6 µM, the TGI (SW-620 colon) was 87.8 µM and the TGI (SK-MEL-2 melanoma) was 34.7 µM. It also gave a TGI (M14 melanoma) of 69.3 µM.

Work on `O=C(CSc1nnc(-c2ccc(N=Cc3ccc(Cl)cc3)cc2)o1)Nc1ccc(Cl)cc1Cl` yielded a TGI (SF-268 CNS) of 64.9 µM, a TGI (KM20L2 colon) of over 100 µM and a TGI (HCC-2998 colon) of over 100 µM. The TGI (NCI-H23 lung) was 59.3 µM, the TGI (MOLT-4 leukemia) was 66 µM and the TGI (UO-31 renal) was 98.7 µM. The TGI (786-0 renal) was 51.8 µM, the TGI (SNB-19 CNS) was 85 µM and the TGI (DLD-1 colon) was 60.5 µM. The TGI (OVCAR-5 ovarian) was over 100 µM, the TGI (RPMI-8226 leukemia) was over 100 µM and the TGI (LXFL 529 NSCLC) was 96.9 µM. The TGI (SNB-75 CNS) was 72.7 µM, the TGI (SNB-78 CNS) was over 100 µM and the TGI (SK-OV-3 ovarian) was 76.7 µM. It also gave a TGI (NCI-H522 lung) of 85.9 µM, a TGI (XF 498 CNS) of 47.9 µM and a TGI (UACC-62 melanoma) of 60.3 µM. The TGI (NCI-H460 lung) was over 100 µM, the TGI (HCT-15 colon) was 52.8 µM and the TGI (DMS 273 small cell lung) was 88.7 µM. For the same compound, the TGI (RXF 393 renal) was over 100 µM, the TGI (K-562 leukemia) was over 100 µM and the TGI (IGROV1 ovarian) was 58.7 µM. The TGI (SF-539 CNS) was 51.1 µM, the TGI (HL-60(TB) leukemia) was over 100 µM and the TGI (COLO 205 colon) was 78 µM. For the same compound, the TGI (HOP-92 NSCLC) was 50.5 µM, the TGI (HT29 colon) was 60.5 µM and the TGI (NCI-H226 lung) was 58.2 µM. It also gave a TGI (A498 renal) of over 100 µM, a TGI (SK-MEL-28 melanoma) of 74.6 µM and a TGI (UACC-257 melanoma) of 71.1 µM. It also gave a TGI (OVCAR-8 ovarian) of 83.7 µM, a TGI (A549 NSCLC) of over 100 µM and a TGI (M19-MEL melanoma) of 88.5 µM. For the same compound, the TGI (ACHN renal) was over 100 µM, the TGI (HCT-116 colon) was 38.1 µM and the TGI (CCRF-CEM leukemia) was over 100 µM. For the same compound, the TGI (SF-295 CNS) was 68.1 µM, the TGI (HOP-62 NSCLC) was 74.5 µM and the TGI (KM12 colon) was 72.4 µM. The TGI (SK-MEL-5 melanoma) was 63.2 µM, the TGI (MALME-3M melanoma) was 47.5 µM and the TGI (EKVX NSCLC) was over 100 µM. For the same compound, the TGI (CAKI-1 renal) was over 100 µM, the TGI (HOP-18 NSCLC) was 39.8 µM and the TGI (OVCAR-4 ovarian) was 88 µM. The TGI (TK-10 renal) was over 100 µM, the TGI (U251 CNS) was 69.9 µM and the TGI (SN12C renal) was 49 µM. The TGI (SW-620 colon) was over 100 µM, the TGI (SK-MEL-2 melanoma) was 47.3 µM and the TGI (M14 melanoma) was 36.1 µM.
